Assay results as given in ChEMBL document CHEMBL5107965, “The progress of small-molecules and degraders against BCR-ABL for the treatment of CML” (Eur J Med Chem, 2022).
Each block holds one compound with its values, some of them ahead of it.

Legend:
[1] = tested on: K562; experiment: Antiproliferative activity against imatinib resistant human K562 cells assessed as cell growth inhibition measured after 48 hrs by MTT assay; assay type: functional, cell-based; settings: K562, 48 h
[2] = tested on: Leukemia cell; experiment: Cytotoxicity against human Leukemia cell assessed as cell growth inhibition measured after 48 hrs by MTT assay; assay type: functional, cell-based
[3] = Cytotoxicity against human CD34-positive/CD38-negative leukemic cell assessed as cell growth inhibition measured after 48 hrs by MTT assay; assay type: functional, cell-based
[4] = tested on: K562; experiment: Cytotoxicity against human K562 cells assessed as cell growth inhibition measured after 72 hrs by MTT assay; assay type: functional, cell-based; settings: K562, 72 h
[5] = molecular target: Tyrosine-protein kinase ABL1 (Homo sapiens, UniProt P00519, T315I); experiment: Inhibition of Abl T315I mutant (unknown origin)
[6] = molecular target: T1, Aurora kinase A (Homo sapiens, UniProt O14965); experiment: Inhibition of Aurora A (unknown origin)
T1 sequence (O14965 whole entry): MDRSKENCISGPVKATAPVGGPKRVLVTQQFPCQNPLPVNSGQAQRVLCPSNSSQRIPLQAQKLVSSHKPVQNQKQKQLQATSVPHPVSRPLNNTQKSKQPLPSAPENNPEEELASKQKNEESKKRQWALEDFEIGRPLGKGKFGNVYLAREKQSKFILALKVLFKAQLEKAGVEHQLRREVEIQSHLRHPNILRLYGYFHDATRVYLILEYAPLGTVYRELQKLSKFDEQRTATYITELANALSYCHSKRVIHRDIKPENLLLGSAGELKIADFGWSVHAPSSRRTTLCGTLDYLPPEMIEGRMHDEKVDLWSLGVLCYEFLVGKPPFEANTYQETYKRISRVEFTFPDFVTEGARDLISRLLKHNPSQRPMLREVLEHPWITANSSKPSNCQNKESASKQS

[7] = tested on: K562; experiment: Antiproliferative activity against imatinib resistant human K562 cells expressing BCR-ABL assessed as cell growth inhibition; assay type: functional, cell-based
[8] = tested on: K562; experiment: Antiproliferative activity against imatinib resistant human K562 cells expressing STAT5 assessed as cell growth inhibition; assay type: functional, cell-based
[9] = molecular target: Tyrosine-protein kinase ABL1 (Homo sapiens, UniProt P00519)
Description: Inhibition of wild type Abl (unknown origin)

[10] = tested on: BaF3; experiment: cells; settings: Mus musculus
[11] = tested on: KBM5; experiment: Antiproliferative activity against human KBM5 cells assessed as cell growth inhibition measured after 24 to 48 hrs by MTS assay; assay type: functional, cell-based
[12] = tested on: KBM5; experiment: Antiproliferative activity against human KBM5 cells harbouring T315I mutant assessed as cell growth inhibition measured after 24 to 48 hrs by MTS assay; assay type: functional, cell-based
[13] = tested on: K562; experiment: Antiproliferative activity against human K562 cells assessed as cell growth inhibition measured after 24 to 48 hrs by MTS assay; assay type: functional, cell-based
[14] = tested on: K562; experiment: Antiproliferative activity against imatinib resistant human K562 cells harbouring wild type ABL assessed as cell growth inhibition by XTT assay; assay type: functional
[15] = tested on: K562; experiment: Antiproliferative activity against imatinib resistant human K562 cells harbouring ABL-T315I mutant assessed as cell growth inhibition by XTT assay; assay type: functional
[16] = molecular target: Platelet-derived growth factor receptor beta (Homo sapiens, UniProt P09619); experiment: Inhibition of PDGFRbeta (unknown origin)
[17] = molecular target: Mast/stem cell growth factor receptor Kit (Homo sapiens, UniProt P10721); experiment: Inhibition of c-Kit (unknown origin)
[18] = molecular target: Bcr/Abl fusion protein (Homo sapiens, UniProt P00519); experiment: Inhibition of wild type BCR-ABL phosphorylation in mouse BaF3 cells incubated for 4 hrs by immunoblotting analysis; assay type: cell-based
[19] = Inhibition of BCR-ABL L248R mutant phosphorylation in mouse BaF3 cells incubated for 4 hrs by immunoblotting analysis; assay type: cell-based; settings: BaF3, 4 h
[20] = Inhibition of BCR-ABL Y253H mutant phosphorylation in mouse BaF3 cells incubated for 4 hrs by immunoblotting analysis; assay type: cell-based; settings: BaF3, 4 h
[21] = molecular target: BCR/ABL1 (Mus musculus, UniProt P00520, E255V); experiment: Inhibition of BCR-ABL E255V mutant phosphorylation in mouse BaF3 cells incubated for 4 hrs by immunoblotting analysis; assay type: cell-based
[22] = molecular target: BCR/ABL1 (Mus musculus, UniProt P00520, T315I); experiment: Inhibition of BCR-ABL T315I mutant phosphorylation in mouse BaF3 cells incubated for 4 hrs by immunoblotting analysis; assay type: cell-based
[23] = Plasma concentration in mouse at 30 mg/kg, measured after 1 hr; assay type: ADME, organism-based
[24] = Drug concentration in brain of mouse at 30 mg/kg, measured after 1 hr; assay type: ADME, organism-based; settings: read-out: Ct
[25] = Ratio of drug concentration in brain to plasma of mouse at 30 mg/kg, measured after 1 hr; assay type: ADME, organism-based; settings: read-out: BPR
[26] = molecular target: von Hippel-Lindau disease tumor suppressor/Tyrosine-protein kinase ABL1/Breakpoint cluster region protein (Homo sapiens, UniProt P00519+P11274+P40337); experiment: Protac activity at VHL/BCR-ABL in human K562 cells assessed as reduction in BCR-ABL protein levels by immunoblotting analysis; assay type: cell-based
[27] = tested on: K562; experiment: Antiproliferative activity against human K562 cells assessed as cell growth inhibition measured after 24 hrs; assay type: functional, cell-based; settings: K562, 24 h
[28] = Half life in mouse at 10 mg/kg, po measured after upto 24 hrs by LC-MS/MS analysis; assay type: ADME, organism-based; settings: in vivo
[29] = Cmax in mouse at 10 mg/kg, po measured after upto 24 hrs by LC-MS/MS analysis; assay type: ADME, organism-based; parameters: dose 10 mg/kg, time < 24 hrs, route po; settings: in vivo
[30] = Inhibition of Abl […] mutant (unknown origin); parameters: species or system Homo sapiens

Sequence of Platelet-derived growth factor receptor beta (P09619 whole entry): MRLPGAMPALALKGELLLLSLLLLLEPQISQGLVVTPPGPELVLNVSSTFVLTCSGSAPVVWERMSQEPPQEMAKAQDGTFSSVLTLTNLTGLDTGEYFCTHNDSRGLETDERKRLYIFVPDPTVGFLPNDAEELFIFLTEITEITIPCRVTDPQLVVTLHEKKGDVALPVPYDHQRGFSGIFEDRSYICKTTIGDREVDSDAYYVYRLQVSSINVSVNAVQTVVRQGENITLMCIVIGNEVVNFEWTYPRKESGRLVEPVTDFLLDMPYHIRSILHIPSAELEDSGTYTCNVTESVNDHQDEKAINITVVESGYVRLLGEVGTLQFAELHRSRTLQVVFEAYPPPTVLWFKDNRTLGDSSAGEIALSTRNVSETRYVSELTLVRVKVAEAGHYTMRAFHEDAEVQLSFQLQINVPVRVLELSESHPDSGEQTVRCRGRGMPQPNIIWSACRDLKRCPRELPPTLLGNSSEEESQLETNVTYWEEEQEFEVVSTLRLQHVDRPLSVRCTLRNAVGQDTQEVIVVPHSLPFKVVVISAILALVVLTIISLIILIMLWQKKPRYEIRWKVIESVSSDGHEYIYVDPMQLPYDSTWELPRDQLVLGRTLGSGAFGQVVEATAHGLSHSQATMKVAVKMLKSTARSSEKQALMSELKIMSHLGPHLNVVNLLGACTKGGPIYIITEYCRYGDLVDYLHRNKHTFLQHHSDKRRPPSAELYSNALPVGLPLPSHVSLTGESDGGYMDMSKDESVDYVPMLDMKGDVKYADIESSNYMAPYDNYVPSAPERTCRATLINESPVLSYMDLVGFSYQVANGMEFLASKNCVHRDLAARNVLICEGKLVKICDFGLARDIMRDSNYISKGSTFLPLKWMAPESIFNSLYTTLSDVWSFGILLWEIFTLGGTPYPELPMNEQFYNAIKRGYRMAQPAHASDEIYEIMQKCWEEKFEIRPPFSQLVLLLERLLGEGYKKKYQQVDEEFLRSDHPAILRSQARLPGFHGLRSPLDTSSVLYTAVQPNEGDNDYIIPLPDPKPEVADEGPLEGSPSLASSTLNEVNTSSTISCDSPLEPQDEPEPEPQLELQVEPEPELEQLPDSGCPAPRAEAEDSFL
Sequence of Mast/stem cell growth factor receptor Kit (P10721 whole entry, the tested form may be a part): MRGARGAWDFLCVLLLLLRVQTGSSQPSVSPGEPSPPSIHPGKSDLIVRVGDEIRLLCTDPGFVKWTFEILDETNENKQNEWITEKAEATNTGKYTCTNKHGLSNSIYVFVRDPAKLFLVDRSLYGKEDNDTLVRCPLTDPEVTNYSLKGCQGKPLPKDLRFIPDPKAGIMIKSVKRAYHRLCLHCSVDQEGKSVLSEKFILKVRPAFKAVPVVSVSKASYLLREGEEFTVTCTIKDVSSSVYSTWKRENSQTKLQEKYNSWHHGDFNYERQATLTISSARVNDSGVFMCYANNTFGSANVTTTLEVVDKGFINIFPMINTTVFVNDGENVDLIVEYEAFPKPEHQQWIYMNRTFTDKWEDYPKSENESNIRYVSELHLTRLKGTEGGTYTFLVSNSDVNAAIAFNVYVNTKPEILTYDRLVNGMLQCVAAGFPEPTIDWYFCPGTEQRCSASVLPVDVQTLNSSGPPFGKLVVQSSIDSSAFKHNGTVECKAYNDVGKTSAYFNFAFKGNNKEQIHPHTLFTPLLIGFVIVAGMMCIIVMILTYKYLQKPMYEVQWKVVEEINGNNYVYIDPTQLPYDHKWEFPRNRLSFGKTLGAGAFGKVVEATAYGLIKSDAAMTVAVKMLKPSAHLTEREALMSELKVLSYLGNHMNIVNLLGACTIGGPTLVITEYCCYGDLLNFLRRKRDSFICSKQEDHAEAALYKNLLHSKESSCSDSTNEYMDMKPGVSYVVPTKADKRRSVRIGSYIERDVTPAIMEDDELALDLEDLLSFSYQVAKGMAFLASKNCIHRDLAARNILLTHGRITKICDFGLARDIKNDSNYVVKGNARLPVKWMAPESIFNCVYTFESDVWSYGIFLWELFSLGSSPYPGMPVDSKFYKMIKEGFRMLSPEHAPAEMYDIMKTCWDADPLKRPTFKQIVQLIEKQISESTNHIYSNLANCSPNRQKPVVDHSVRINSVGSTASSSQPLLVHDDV
Sequence of BCR/ABL1 (Mus musculus, UniProt P00520, T315I) (P00520 whole entry T315I, looked up): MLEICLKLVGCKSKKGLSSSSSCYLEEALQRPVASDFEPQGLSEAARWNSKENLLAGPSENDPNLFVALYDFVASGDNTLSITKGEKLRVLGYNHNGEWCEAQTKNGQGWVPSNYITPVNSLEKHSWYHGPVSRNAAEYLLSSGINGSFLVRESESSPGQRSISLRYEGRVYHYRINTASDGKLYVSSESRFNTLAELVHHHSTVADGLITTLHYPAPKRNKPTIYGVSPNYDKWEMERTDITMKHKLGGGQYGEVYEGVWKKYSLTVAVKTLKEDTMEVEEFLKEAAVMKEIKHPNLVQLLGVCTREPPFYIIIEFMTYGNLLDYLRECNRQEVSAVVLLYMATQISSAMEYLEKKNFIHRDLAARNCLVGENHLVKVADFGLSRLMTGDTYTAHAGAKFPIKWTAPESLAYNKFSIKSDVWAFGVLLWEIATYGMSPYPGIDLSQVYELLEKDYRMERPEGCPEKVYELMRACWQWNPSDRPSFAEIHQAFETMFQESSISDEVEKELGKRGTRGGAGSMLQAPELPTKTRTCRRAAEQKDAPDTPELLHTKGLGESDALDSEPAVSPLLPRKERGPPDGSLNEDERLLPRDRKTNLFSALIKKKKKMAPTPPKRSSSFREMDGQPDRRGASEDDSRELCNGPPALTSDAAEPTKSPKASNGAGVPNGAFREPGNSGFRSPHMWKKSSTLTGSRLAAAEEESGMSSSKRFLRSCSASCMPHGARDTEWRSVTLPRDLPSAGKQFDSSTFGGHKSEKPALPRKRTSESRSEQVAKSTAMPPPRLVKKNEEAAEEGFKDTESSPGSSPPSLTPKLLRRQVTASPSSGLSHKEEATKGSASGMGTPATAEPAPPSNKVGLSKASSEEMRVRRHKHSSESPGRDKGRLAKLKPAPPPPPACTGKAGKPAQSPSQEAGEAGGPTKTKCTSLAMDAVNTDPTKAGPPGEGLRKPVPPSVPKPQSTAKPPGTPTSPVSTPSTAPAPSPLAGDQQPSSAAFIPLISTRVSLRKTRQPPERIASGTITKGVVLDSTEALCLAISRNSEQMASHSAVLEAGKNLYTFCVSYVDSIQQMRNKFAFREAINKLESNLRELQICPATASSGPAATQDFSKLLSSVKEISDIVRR
Sequence of BCR/ABL1 (Mus musculus, UniProt P00520, E255V) (P00520 whole entry E255V, looked up): as the sequence (P00520 whole entry T315I, looked up) above, with E255V, I315T counted along it

Structure (SMILES): COc1ccc2cc1Oc1ccc(cc1)C[C@H]1c3cc(c(OC)cc3CCN1C)Oc1c(OC)c(OC)cc3c1[C@H](C2)N(C)CC3.O=C(O)CC(O)(CC(=O)O)C(=O)O
IC50 [1]: 1.2 µg/mL
IC50 [2]: 1.2 µg/mL
IC50 [3]: 1.2 µg/mL

Structure (SMILES): Cc1ccc(C(=O)Nc2ccc(CN3CCN(C)CC3)c(C(F)(F)F)c2)cc1C#Cc1nnc2ccccn12 [VAMOTINIB]
IC50 [4]: 1 nM

Structure (SMILES): CC(C)c1cc(CNc2nc(Nc3cc(C4CC4)[nH]n3)cc(N3CCN(C)CC3)n2)on1 [XL-228]
IC50 [5]: 14 nM
IC50 [6]: 3.1 nM
IC50 [7]: 33 nM
IC50 [8]: 43 nM
IC50 [9]: 5 nM

IC50 [10]: 100 nM
Structure (SMILES): Cc1cc(Nc2cc(N3CCN(C)CC3)nc(Sc3ccc(NC(=O)C4CC4)cc3)n2)n[nH]1 [TOZASERTIB]

IC50 [13]: 8420 nM
Structure (SMILES): COc1ccc(-c2cc(=O)c3c(O)cc(O)cc3o2)cc1O [DIOSMETIN]
IC50 [11]: 8520 nM
IC50 [12]: 6460 nM

GI50 [14]: 270 nM
GI50 [15]: 270 nM
Structure (SMILES): O=C(c1ccc(/C=C/c2n[nH]c3ccccc23)cc1)N1CCNCC1 [KW-2449]

IC50 [16]: 308 nM
IC50 [17]: 666 nM
Structure (SMILES): Cc1ncc(NC(=O)c2ccc(CN3CCN(C)CC3)c(C(F)(F)F)c2)cc1Nc1nccc(-c2cccnc2)n1 [FLUMATINIB]

IC50 [18]: 0.9 nM
IC50 [19]: 167 nM
IC50 [20]: 154 nM
IC50 [21]: 165 nM
IC50 [22]: 1970 nM
concentration at 1 h [23]: 4800 ng/mL
concentration at 1 h [24]: 1900 ng/g
Kp at 1 h [25]: 0.4
Structure (SMILES): Cc1ccc(C(=O)NNC(=O)c2c(C)cccc2Cl)cc1C#Cc1cnc2ccccc2c1 [VODOBATINIB]

DC50 [26]: 30 nM
IC50 [27]: 169 nM
half-life [28]: 3.67 h
Cmax [29]: 536 ng/mL
Structure (SMILES): Cc1ncsc1-c1ccc(CNC(=O)[C@@H]2C[C@@H](O)CN2C(=O)[C@@H](NC(=O)COCCNc2ccc(C(=O)Nc3ccc(OC(F)(F)Cl)cc3)cc2-c2cc[nH]n2)C(C)(C)C)cc1

IC50 [30]: 1.4 nM
Structure (SMILES): CNC(=O)c1cc(Oc2ccc(NC(=O)Nc3cc(C(C)(C)C)nn3-c3ccc4ncccc4c3)c(F)c2)ccn1 [REBASTINIB]
